Results reported in ChEMBL document CHEMBL3272130, “Synthesis and hypotensive activity of some cyclopentano-1,2,3,4-tetrahydroisoquinolines” (J Med Chem, 1977).

What was measured:
[1] = test system: Rattus norvegicus; assay: Cardiovascular activity in deoxycorticosterone acetate treated hypertensive CD rat assessed as change in heart rate at 10 mg, ip after 2 hrs relative to control; assay type: ADME, organism-based; details: in vivo
[2] = test system: Rattus norvegicus; assay: Hypotensive activity in deoxycorticosterone acetate treated hypertensive CD rat assessed as change in blood pressure at 20 mg, ip after 2 hrs relative to control; assay type: functional
[3] = test system: Rattus norvegicus; assay: Cardiovascular activity in deoxycorticosterone acetate treated hypertensive CD rat assessed as change in heart rate at 10 mg, ip after 4 hrs relative to control; assay type: ADME, organism-based; details: in vivo
[4] = test system: Rattus norvegicus; assay: Cardiovascular activity in deoxycorticosterone acetate treated hypertensive CD rat assessed as change in heart rate at 20 mg, ip after 24 hrs relative to control; assay type: ADME, organism-based; details: in vivo
[5] = test system: Rattus norvegicus; assay: Hypotensive activity in deoxycorticosterone acetate treated hypertensive CD rat assessed as change in blood pressure at 10 mg, ip after 2 hrs relative to control; assay type: functional
[6] = test system: Rattus norvegicus; assay: Hypotensive activity in deoxycorticosterone acetate treated hypertensive CD rat assessed as change in blood pressure at 10 mg, ip after 1 hr relative to control; assay type: functional
[7] = test system: Rattus norvegicus; assay: Cardiovascular activity in deoxycorticosterone acetate treated hypertensive CD rat assessed as change in heart rate at 10 mg, ip after 1 hr relative to control; assay type: ADME, organism-based; details: in vivo
[8] = test system: Rattus norvegicus; assay: Cardiovascular activity in deoxycorticosterone acetate treated hypertensive CD rat assessed as change in heart rate at 20 mg, ip after 1 hr relative to control; assay type: ADME, organism-based; details: in vivo
[9] = test system: Rattus norvegicus; assay: Hypotensive activity in deoxycorticosterone acetate treated hypertensive CD rat assessed as change in blood pressure at 20 mg, ip after 1 hr relative to control; assay type: functional
[10] = test system: Rattus norvegicus; assay: Hypotensive activity in deoxycorticosterone acetate treated hypertensive CD rat assessed as change in blood pressure at 10 mg, ip after 24 hrs relative to control; assay type: functional
[11] = Toxicity in ip dosed Swiss-Webster mouse after 24 hrs; assay type: organism-based; details: in vivo
[12] = test system: Rattus norvegicus; assay: Cardiovascular activity in deoxycorticosterone acetate treated hypertensive CD rat assessed as change in heart rate at 20 mg, ip after 2 hrs relative to control; assay type: ADME, organism-based; details: in vivo
[13] = test system: Rattus norvegicus; assay: Hypotensive activity in deoxycorticosterone acetate treated hypertensive CD rat assessed as change in blood pressure at 20 mg, ip after 4 hrs relative to control; assay type: functional
[14] = test system: Rattus norvegicus; assay: Hypotensive activity in deoxycorticosterone acetate treated hypertensive CD rat assessed as change in blood pressure at 10 mg, ip after 4 hrs relative to control; assay type: functional
[15] = test system: Rattus norvegicus; assay: Hypotensive activity in deoxycorticosterone acetate treated hypertensive CD rat assessed as change in blood pressure at 50 mg, ip after 24 hrs relative to control; assay type: functional
[16] = test system: Rattus norvegicus; assay: Cardiovascular activity in deoxycorticosterone acetate treated hypertensive CD rat assessed as change in heart rate at 20 mg, ip after 4 hrs relative to control; assay type: ADME, organism-based; details: in vivo
[17] = test system: Rattus norvegicus; assay: Cardiovascular activity in deoxycorticosterone acetate treated hypertensive CD rat assessed as change in heart rate at 50 mg, ip after 24 hrs relative to control; assay type: ADME, organism-based; details: in vivo
[18] = test system: Rattus norvegicus; assay: Cardiovascular activity in deoxycorticosterone acetate treated hypertensive CD rat assessed as change in heart rate at 10 mg, ip after 24 hrs relative to control; assay type: ADME, organism-based; details: in vivo
[19] = test system: Rattus norvegicus; assay: Hypotensive activity in deoxycorticosterone acetate treated hypertensive CD rat assessed as change in blood pressure at 20 mg, ip after 24 hrs relative to control; assay type: functional
[20] = test system: Rattus norvegicus; assay: Cardiovascular activity in deoxycorticosterone acetate treated hypertensive CD rat assessed as change in heart rate at 50 mg, ip after 1 hr relative to control; assay type: ADME, organism-based; details: in vivo
[21] = test system: Rattus norvegicus; assay: Cardiovascular activity in deoxycorticosterone acetate treated hypertensive CD rat assessed as change in heart rate at 50 mg, ip after 4 hrs relative to control; assay type: ADME, organism-based; details: in vivo
[22] = test system: Rattus norvegicus; assay: Hypotensive activity in deoxycorticosterone acetate treated hypertensive CD rat assessed as change in blood pressure at 50 mg, ip after 1 hr relative to control; assay type: functional
[23] = test system: Rattus norvegicus; assay: Cardiovascular activity in deoxycorticosterone acetate treated hypertensive CD rat assessed as change in heart rate at 50 mg, ip after 2 hrs relative to control; assay type: ADME, organism-based; details: in vivo
[24] = test system: Rattus norvegicus; assay: Hypotensive activity in deoxycorticosterone acetate treated hypertensive CD rat assessed as change in blood pressure at 50 mg, ip after 2 hrs relative to control; assay type: functional
[25] = test system: Rattus norvegicus; assay: Hypotensive activity in deoxycorticosterone acetate treated hypertensive CD rat assessed as change in blood pressure at 50 mg, ip after 4 hrs relative to control; assay type: functional
[26] = test system: Rattus norvegicus; assay: Hypotensive activity in deoxycorticosterone acetate treated hypertensive CD rat assessed as change in blood pressure at 100 mg, ip after 4 hrs relative to control; assay type: functional
[27] = test system: Rattus norvegicus; assay: Cardiovascular activity in deoxycorticosterone acetate treated hypertensive CD rat assessed as change in heart rate at 100 mg, ip after 2 hrs relative to control; assay type: ADME, organism-based; details: in vivo
[28] = test system: Rattus norvegicus; assay: Cardiovascular activity in deoxycorticosterone acetate treated hypertensive CD rat assessed as change in heart rate at 100 mg, ip after 1 hr relative to control; assay type: ADME, organism-based; details: in vivo
[29] = test system: Rattus norvegicus; assay: Hypotensive activity in deoxycorticosterone acetate treated hypertensive CD rat assessed as change in blood pressure at 100 mg, ip after 1 hr relative to control; assay type: functional
[30] = test system: Rattus norvegicus; assay: Hypotensive activity in deoxycorticosterone acetate treated hypertensive CD rat assessed as change in blood pressure at 100 mg, ip after 24 hrs relative to control; assay type: functional
[31] = test system: Rattus norvegicus; assay: Cardiovascular activity in deoxycorticosterone acetate treated hypertensive CD rat assessed as change in heart rate at 100 mg, ip after 4 hrs relative to control; assay type: ADME, organism-based; details: in vivo
[32] = test system: Rattus norvegicus; assay: Cardiovascular activity in deoxycorticosterone acetate treated hypertensive CD rat assessed as change in heart rate at 100 mg, ip after 24 hrs relative to control; assay type: ADME, organism-based; details: in vivo
[33] = test system: Rattus norvegicus; assay: Hypotensive activity in deoxycorticosterone acetate treated hypertensive CD rat assessed as change in blood pressure at 100 mg, ip after 2 hrs relative to control; assay type: functional

SMILES	Activity [2] [%]	Activity [4] [%]	Activity [8] [%]	Activity [9] [%]	LD50 at 24 h [11] [mg/kg]	Activity [12] [%]	Activity [13] [%]	Activity [15] [%]	Activity [16] [%]	Activity [17] [%]	Activity [19] [%]	Activity [20] [%]	Activity [21] [%]	Activity [22] [%]	Activity [23] [%]	Activity [24] [%]	Activity [25] [%]	further results
COc1c2c(c3c(c1OC)CNCC3)CCC2	-4	7.4	10.2	-3.9	79	16.9	-3.9	-16.8	11	-3.8	-0.2							Activity [1]: 8.1%; Activity [3]: 3.9%; Activity [5]: -3.4%; Activity [6]: -3.1%; Activity [7]: 5.8%; Activity [10]: -7.2%; Activity [14]: -14.2%; Activity [18]: -9.1%
Br.COc1c2c(c3c(c1OC)CN(C)CC3)CCC2	5.5	1.5	3.5	6.3	100	9.2	-4.2	-4.6	8.5	-3.8	-2.9	-8.7	1.6	-3	-4.4	-2.9	-6.3	
Br.CCC(C)CN1CCc2c3c(c(OC)c(OC)c2C1)CCC3 (stereo not given)	-8.1	-5.5	7.8	-13.1	100	7.3	-7		3.4		-1.6							Activity [1]: -4.2%; Activity [3]: -4.3%; Activity [5]: -1.9%; Activity [6]: -12.2%; Activity [7]: 3.6%; Activity [10]: -2.6%; Activity [14]: 0.7%; Activity [18]: -2.4%
COc1ccc(C(=O)N2CCc3c4c(c(OC)c(OC)c3C2)CCC4)cc1OC	-1.4	5.7	3.8	-4	150	8.9	-3.1		2.2		5.6							
COc1ccc(CN2CCc3c4c(c(OC)c(OC)c3C2)CCC4)cc1OC.Cl					141			0.9		-1.3		13	10.2	-8.8	9	-4.2	-0.7	
COc1ccc(CC(=O)N2CCc3c4c(c(OC)c(OC)c3C2)CCC4)cc1OC	-3.9	-6.7	1.9	5.4	160	1.8	-6.3		1.3		-3.1							
Br.COc1ccc(CCN2CCc3c4c(c(OC)c(OC)c3C2)CCC4)cc1OC					125			-2.8		2.4		22	5.4	-26	17.6	-11.3	-6.6	
COc1c2c(c3c(c1OC)CN(CC(c1ccccc1)c1ccccc1)CC3)CCC2	1.1	-5	7.4	1.4	> 1000	10.7	-2.9		0.8		-3							Activity [26]: -11.2%; Activity [27]: 2.4%; Activity [28]: 8.7%; Activity [29]: -10.7%; Activity [30]: -3.6%; Activity [31]: 2.4%; Activity [32]: -2.4%; Activity [33]: -12.7%
COc1c2c(c3c(c1OC)CN(C(=O)CC(c1ccccc1)c1ccccc1)CC3)CCC2	-6.9	-1.8	16.8	-4.4	100	15.8	-5		2.4		-2.1							
COc1c2c(c3c(c1OC)CN(CCC(c1ccccc1)c1ccccc1)CC3)CCC2					1000													Activity [26]: -6.7%; Activity [27]: 4.6%; Activity [28]: 4%; Activity [29]: -3.5%; Activity [30]: -7%; Activity [31]: 0.8%; Activity [32]: 0.6%; Activity [33]: -7.9%
Br.CN1CCc2c(c(O)c(O)c3c2CCC3)C1					150			-3.6		3		8.2	4.1	-1.1	4.8	2.6	3	
CC(=O)Oc1c2c(c3c(c1OC(C)=O)CN(C)CC3)CCC2.O=C(O)C(F)(F)F					200			-5.1		0.3		14.6	2.6	-13.1	7.3	5.2	-0.6	
COc1ccc(C(=O)N2CCc3c(c4c(c(OC)c3OC)CCC4)C2)cc1OC					> 1000													Activity [26]: -3.4%; Activity [27]: 3.4%; Activity [28]: 0.2%; Activity [29]: -12.1%; Activity [30]: -6%; Activity [31]: -1.2%; Activity [32]: -6.5%; Activity [33]: -8.8%
Br.COc1ccc(CN2CCc3c(c4c(c(OC)c3OC)CCC4)C2)cc1OC					200			3.3		-9.1		0.4	1	-8.4	0.4	-2.4	-1	
COc1ccc(CC(=O)N2CCc3c(c4c(c(OC)c3OC)CCC4)C2)cc1OC					500													
Br.COc1ccc(CCN2CCc3c(c4c(c(OC)c3OC)CCC4)C2)cc1OC					100													
COc1c2c(c3c(c1OC)CCN(C(=O)C(c1ccccc1)c1ccccc1)C3)CCC2					200													
COc1c2c(c3c(c1OC)CCN(CC(c1ccccc1)c1ccccc1)C3)CCC2					> 1000													Activity [26]: -2%; Activity [27]: 25.4%; Activity [28]: 18.5%; Activity [29]: -5%; Activity [30]: 4%; Activity [31]: 8.6%; Activity [32]: -0.5%; Activity [33]: -3.4%
Br.CN1CCc2c(O)c(O)c3c(c2C1)CCC3					160			-8.6		-8.6		-1.9	4.6	-9.1	5.1	-3.5	-5.7	
CC(=O)Oc1c2c(c3c(c1OC(C)=O)CCN(C)C3)CCC2					150													
C[C@](N)(Cc1ccc(O)c(O)c1)C(=O)O [METHYLDOPA]								-16.5		-19.3		106.2	31	-31	104.1	-50	-47.7	
